For two compounds, Ambit profiling results are on record in patent US12157741B2, “Macrocyclic inhibitors of DYRK1A” (DANA-FARBER CANCER INSTITUTE, INC., priority 2018, dated 2024).

Like-named read-outs stand apart in the source and are kept apart here.

The target of assay [1] is various enzymes (Homo sapiens, UniProt P00533, L858R/T790M).
Procedure: (§1) Ambit profiling from Eurofins (formerly Discoverx) was conducted in accordance with the manufacturer's instructions.
In assay [2] the target is various enzymes (Homo sapiens, UniProt Q9HCP0). The following applies: CSNK1G1; 1 uM.
Procedure: as §1
The target of assay [3] is various enzymes (Homo sapiens, UniProt P54756). The settings on record: EPHA5; 1 uM.
Procedure: as §1
Assay [4] has as its target various enzymes (Homo sapiens, UniProt P00533, DEL746-750). The settings on record: EGFR(E746-A750del); 1 uM.
Procedure: as §1
Assay [5] has as its target various enzymes (Homo sapiens, UniProt P08581, M1250T).
Procedure: as §1
Assay [6] has as its target T1, various enzymes (Homo sapiens, UniProt P36888).
T1 sequence (P36888 1-993): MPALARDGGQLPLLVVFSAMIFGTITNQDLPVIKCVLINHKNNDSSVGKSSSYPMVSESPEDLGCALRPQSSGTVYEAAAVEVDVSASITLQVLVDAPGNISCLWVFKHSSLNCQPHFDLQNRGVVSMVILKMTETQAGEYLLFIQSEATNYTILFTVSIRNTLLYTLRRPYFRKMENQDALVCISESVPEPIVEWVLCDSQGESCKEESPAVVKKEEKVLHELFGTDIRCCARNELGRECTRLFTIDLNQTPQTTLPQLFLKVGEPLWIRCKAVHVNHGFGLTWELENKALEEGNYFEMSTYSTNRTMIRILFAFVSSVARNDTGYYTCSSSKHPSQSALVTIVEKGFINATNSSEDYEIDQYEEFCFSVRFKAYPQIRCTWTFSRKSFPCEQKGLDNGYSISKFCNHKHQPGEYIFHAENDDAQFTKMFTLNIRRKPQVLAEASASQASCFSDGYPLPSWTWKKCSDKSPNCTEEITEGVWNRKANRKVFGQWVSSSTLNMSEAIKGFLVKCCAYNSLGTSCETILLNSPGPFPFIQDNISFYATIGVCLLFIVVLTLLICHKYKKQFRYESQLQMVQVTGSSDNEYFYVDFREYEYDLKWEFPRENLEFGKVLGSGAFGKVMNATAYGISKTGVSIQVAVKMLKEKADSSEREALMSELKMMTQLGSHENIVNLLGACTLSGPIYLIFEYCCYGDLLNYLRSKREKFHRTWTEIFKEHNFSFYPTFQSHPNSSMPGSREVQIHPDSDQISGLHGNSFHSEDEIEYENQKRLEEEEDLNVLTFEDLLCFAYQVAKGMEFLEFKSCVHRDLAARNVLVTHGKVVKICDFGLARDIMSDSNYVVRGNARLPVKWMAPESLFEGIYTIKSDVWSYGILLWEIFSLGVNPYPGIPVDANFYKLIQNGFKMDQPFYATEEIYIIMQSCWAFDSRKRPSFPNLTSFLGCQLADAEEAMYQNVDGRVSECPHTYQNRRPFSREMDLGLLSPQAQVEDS
The following applies: FLT3(ITD); 1 uM.
Procedure: as §1

For assay [7], the target named is T2, various enzymes (Homo sapiens, UniProt Q96L34).
T2 sequence (Q96L34 1-752): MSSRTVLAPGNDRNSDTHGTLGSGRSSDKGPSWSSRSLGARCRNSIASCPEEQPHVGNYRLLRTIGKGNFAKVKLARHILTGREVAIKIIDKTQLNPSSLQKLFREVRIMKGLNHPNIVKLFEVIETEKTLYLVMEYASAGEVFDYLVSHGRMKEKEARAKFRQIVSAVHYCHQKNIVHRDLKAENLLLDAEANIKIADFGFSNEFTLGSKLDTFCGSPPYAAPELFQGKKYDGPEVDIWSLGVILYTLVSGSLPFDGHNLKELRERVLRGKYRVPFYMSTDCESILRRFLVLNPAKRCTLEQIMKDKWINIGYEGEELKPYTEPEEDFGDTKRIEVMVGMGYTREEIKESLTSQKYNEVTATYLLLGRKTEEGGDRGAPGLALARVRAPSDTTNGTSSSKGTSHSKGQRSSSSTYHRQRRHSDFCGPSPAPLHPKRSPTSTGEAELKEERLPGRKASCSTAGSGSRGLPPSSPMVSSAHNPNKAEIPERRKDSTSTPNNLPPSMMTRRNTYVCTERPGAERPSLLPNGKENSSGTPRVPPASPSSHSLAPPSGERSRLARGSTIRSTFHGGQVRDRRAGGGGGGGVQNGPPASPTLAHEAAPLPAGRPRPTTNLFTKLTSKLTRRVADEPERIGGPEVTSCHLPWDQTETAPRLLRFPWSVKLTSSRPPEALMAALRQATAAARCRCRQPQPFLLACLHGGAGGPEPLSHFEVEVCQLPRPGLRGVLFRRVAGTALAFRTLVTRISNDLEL
The following applies: MARK4; 1 uM.
Procedure: as §1

In assay [8] the target is various enzymes (Homo sapiens, UniProt P08581, Y1235D).
Procedure: as §1
Assay [9] deals with various enzymes (Homo sapiens, UniProt P78368). The following applies: CSNK1G2; 1 uM.
Procedure: as §1
Assay [10] concerns the target various enzymes (Homo sapiens, UniProt P00533, DEL747-752/P753S).
Procedure: as §1
For assay [11], the target named is T3, various enzymes (Homo sapiens, UniProt O14757).
T3 sequence (O14757 1-476): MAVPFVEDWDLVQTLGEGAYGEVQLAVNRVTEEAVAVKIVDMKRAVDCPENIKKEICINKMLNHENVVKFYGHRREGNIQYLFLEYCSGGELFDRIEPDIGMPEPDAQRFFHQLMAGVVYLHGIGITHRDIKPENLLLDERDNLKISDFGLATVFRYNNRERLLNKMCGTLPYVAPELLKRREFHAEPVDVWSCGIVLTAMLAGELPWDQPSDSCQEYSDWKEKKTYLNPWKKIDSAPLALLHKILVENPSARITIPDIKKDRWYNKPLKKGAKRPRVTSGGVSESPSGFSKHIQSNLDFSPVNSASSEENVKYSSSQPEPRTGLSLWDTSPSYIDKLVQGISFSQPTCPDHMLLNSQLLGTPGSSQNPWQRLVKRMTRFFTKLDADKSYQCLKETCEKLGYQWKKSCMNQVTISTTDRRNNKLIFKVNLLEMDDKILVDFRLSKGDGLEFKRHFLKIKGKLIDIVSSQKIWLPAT
The settings on record: CHEK1; 1 uM.
Procedure: as §1

In assay [12] the target is various enzymes (Homo sapiens, UniProt P24941). The following applies: CDK2; 1 uM.
Procedure: as §1
Assay [13] deals with various enzymes (Homo sapiens, UniProt O60674). The following applies: JAK2(JH1domain-catalytic); 1 uM.
Chain of various enzymes (Homo sapiens, UniProt O60674) (O60674 whole entry): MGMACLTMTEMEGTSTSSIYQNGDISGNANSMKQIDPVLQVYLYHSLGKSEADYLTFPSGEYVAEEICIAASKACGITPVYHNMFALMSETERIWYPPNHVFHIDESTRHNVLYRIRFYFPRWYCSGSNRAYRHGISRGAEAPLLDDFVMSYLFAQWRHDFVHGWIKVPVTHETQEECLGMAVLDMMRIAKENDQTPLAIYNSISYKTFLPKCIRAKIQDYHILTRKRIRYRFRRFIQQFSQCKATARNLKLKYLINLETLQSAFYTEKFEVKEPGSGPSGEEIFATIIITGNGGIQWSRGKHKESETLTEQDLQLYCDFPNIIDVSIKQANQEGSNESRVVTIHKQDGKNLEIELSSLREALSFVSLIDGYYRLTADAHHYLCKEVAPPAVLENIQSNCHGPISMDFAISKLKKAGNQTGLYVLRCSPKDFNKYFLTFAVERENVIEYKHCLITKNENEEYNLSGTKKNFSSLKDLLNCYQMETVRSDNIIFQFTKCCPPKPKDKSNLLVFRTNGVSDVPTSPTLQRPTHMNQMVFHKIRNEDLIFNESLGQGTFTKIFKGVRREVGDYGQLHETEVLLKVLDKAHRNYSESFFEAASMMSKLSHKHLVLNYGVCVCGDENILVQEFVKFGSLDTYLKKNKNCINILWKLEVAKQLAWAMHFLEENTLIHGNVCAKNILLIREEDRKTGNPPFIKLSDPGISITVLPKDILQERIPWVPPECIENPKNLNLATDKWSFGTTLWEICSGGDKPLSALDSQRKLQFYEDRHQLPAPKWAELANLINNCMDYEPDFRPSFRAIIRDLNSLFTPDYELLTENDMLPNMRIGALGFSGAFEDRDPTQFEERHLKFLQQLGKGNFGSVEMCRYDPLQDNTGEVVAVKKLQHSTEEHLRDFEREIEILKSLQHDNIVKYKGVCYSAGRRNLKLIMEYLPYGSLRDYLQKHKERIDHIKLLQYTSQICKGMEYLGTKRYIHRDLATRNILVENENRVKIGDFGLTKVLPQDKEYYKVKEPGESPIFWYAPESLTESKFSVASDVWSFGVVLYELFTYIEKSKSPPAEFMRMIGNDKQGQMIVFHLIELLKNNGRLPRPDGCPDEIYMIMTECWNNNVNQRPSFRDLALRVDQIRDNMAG
Procedure: as §1

Chain of various enzymes (Homo sapiens, UniProt P78368) (P78368 whole entry): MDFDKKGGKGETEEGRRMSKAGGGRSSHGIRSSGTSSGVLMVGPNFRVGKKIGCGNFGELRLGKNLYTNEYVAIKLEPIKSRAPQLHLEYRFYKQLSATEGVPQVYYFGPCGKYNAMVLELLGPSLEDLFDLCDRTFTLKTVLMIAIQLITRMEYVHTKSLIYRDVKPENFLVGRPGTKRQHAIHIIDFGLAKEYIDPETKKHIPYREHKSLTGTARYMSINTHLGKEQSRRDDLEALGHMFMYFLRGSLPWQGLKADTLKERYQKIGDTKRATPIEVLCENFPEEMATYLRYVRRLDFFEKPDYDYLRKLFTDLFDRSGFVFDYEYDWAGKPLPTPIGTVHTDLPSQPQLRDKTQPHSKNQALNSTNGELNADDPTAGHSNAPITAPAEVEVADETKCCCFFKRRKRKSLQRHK
Chain of various enzymes (Homo sapiens, UniProt Q9HCP0) (Q9HCP0 whole entry): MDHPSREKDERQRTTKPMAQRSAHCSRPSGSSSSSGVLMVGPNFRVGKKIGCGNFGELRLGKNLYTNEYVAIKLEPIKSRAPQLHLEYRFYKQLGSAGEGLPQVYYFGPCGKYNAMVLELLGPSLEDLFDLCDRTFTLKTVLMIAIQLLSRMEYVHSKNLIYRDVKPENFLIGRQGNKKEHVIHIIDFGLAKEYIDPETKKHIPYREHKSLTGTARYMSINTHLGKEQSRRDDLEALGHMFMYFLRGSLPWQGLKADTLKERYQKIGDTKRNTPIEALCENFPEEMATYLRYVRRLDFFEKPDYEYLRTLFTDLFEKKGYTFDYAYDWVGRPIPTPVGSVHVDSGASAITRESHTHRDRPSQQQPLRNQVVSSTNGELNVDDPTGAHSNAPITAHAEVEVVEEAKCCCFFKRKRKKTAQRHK
Chain of various enzymes (Homo sapiens, UniProt P54756) (P54756 25-1037): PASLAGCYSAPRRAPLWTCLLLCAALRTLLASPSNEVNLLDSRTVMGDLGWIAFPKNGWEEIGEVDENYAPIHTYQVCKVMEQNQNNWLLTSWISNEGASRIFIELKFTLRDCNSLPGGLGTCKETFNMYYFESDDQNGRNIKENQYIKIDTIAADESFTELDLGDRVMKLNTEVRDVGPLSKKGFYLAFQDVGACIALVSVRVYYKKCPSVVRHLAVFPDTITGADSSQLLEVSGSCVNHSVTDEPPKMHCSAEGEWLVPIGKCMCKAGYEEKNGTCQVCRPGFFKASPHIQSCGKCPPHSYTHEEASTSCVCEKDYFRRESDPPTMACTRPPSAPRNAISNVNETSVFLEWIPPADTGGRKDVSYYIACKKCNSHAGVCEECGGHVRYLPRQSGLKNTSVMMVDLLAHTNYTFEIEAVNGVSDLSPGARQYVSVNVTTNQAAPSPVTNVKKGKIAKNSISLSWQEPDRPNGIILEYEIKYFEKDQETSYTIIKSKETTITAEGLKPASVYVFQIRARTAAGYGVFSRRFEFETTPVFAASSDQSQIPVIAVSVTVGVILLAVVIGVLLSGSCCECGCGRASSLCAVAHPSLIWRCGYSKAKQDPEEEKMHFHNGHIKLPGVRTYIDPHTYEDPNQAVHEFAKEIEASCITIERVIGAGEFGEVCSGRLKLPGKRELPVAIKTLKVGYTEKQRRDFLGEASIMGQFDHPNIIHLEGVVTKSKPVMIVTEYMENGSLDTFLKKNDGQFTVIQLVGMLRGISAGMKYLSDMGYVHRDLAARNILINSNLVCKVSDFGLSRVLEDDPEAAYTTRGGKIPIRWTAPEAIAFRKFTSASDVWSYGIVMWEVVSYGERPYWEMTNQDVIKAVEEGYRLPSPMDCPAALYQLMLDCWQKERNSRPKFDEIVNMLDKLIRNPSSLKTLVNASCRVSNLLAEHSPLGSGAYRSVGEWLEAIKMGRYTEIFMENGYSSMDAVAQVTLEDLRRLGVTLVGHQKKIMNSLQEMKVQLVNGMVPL

On to `CN1Cc2nn(C)cc2-c2cnc3[nH]cc(c3c2)-c2cnn(c2)CCCC1=O` [Compound 41, (Z)-31,5-dimethyl-11H,21H,31H-5-aza-2(3,5)-pyrrolo[2,3-b]pyridina-1(4,1),3(4,3)-dipyrazolacyclononaphan-6-one], for which the Ambit profiling at various enzymes [1] (EGFR(L858R, T790M), 1 uM) is given as 14; at various enzymes [2] it was 84; on various enzymes [3], 58; at various enzymes [4], 100; on various enzymes [5] (MET(M1250T), 1 uM) it was 20; on various enzymes [6], 0.15. Further, the Ambit profiling on various enzymes [7] came to 27; on various enzymes [8] (MET(Y12350), 1 uM) it was 44; on various enzymes [9] it was 100; at various enzymes [10] (EGFR(L747-S752del, P753S), 1 uM) it was 100; on various enzymes [11], 100; on various enzymes [12], 55. The compound further gave an Ambit profiling on various enzymes [13] of 0.5.
Turning to `CN1Cc2nn(C)c(C#N)c2-c2cnc3[nH]cc(c3c2)-c2cn(nc2C(F)(F)F)CCCC1=O` [Compound 48, (Z)-31,5-dimethyl-6-oxo-13-(trifluoromethyl)-11H,21H,31H-5-aza-2(3,5)-pyrrolo[2,3-b]pyridina-1(4,1),3(4,3)-dipyrazolacyclononaphane-35-carbonitrile], the Ambit profiling at various enzymes [1] stood at 50; on various enzymes [2], 100; on various enzymes [3], 97; at various enzymes [4], 35; at various enzymes [5] it was 75; on various enzymes [6] it was 21. For the same compound, the Ambit profiling at various enzymes [7] is on record as 92; at various enzymes [8], 51; on various enzymes [9], 100; at various enzymes [10], 74; at various enzymes [11] it was 93; at various enzymes [12], 91. The same compound yielded an Ambit profiling on various enzymes [13] of 81.
